Legend:
[1] = system: HCV replicon cells; assay: HCV replicon luciferase assay; format: cell-based; details: 0.05–30 µM, 3 days
Experimental: HCV replicon cells were plated on clear and white 96-well plates (TPP, 92096 and Greiner Bio-one, 655083) in DMEM, high glucose, GlutaMAX Supplement (Thermo Fisher Scientific, Waltham, MA, USA) containing 10 % fetal bovine serum, penicillin, and streptomycin. After 1 day, the cells were treated with 0.05–30 µM of iCDM-17 and iCDM-34 for 3 days. The quantity of HCV replicons was measured by a luciferase assay using Steady-Glo Luciferase Assay System (Promega, Madison, WI, USA). The cell viability was measured by XTT assay using Cell proliferation kit II (Roche, Mannheim, Germany) according to the established protocol.

[2] = system: HBV genotype C; assay: HBsAg and HBeAg in culture medium by ELISA; format: cell-based; details: 30 µM, 7 days
Experimental: (§1) PXB cells were plated on 96-well plate and infected with three genome equivalents per cell of HBV C_AT [33], and the medium was changed every 3 or 4 days. […] After treatment with these compounds, cellular DNA, medium DNA, and total RNA were automatically purified as per our previously established protocol. RNA purification of total RNA from cultured cells in the 24-well plate was performed using the RNeasy Mini Kit (Qiagen, Germantown, MD, USA) according to the manufacturer’s instructions.
HBsAg and HBeAg levels in the cell culture medium were measured using Enzygnost HBsAg 6.0 and Enzygnost HBe monoclonal (Siemens, Munich, Germany), respectively, according to the manufacturer’s instructions.

[3] = system: HCV replicon cells; assay: AhR knockdown in HCV replicon cells, luciferase assay; format: cell-based; details: 30 μM, 2 days
Experimental: For knockdown of AhR in the HCV replicon cells, 2 ×10^4 cells of HCV replicon cells were mixed with AhR siRNA (siGENOME Human AHR siRNA – Smart pool, Horizon Discovery, Cambridgeshire, United Kingdom) and X-tremeGene 360 transfection reagent (Roche) and plated on 96 well plates. After 2 days of knockdown, the cells were treated with 30 μM iCDM-17, iCDM-34, and CDM-3008 for 2 days. The quantity of HCV replicons and cell viability were measured. The cellular RNA was purified using Agencourt RNAdvance (Beckman Coulter, San Jose, CA) and reverse-transcribed using PrimeScript RT master mix (Takara Bio, Kusatsu, Japan) to measure amount of AhR and β-actin mRNAs by quantitative PCR.

[4] = Liver microsomal stability, human; format: in vitro ADME; details: human liver microsomes
Experimental: (§2) Liver microsome stability studies (human, mouse, and rat) were performed at Sumika Chemical Analysis Service (Osaka, Japan) by following an established procedure. A mixture of 1 μM of substrate, 0.5 mg protein/mL of microsomes, and […] β-NADPH was incubated for 30 or 60 min and % remaining substrate was quantitatively measured by LC-MS/MS.

[5] = system: PXB cells; assay: Cell viability of HBV-infected PXB cells (RealTime-Glo MT); format: cell-based; details: 3 and 30 µM, with or without 10 nM ETV, 7 days
Experimental: (§3) PXB cells (primary cultured human hepatocytes) were purchased from PhoenixBio (Higashi-Hiroshima, Japan) and cultured on collagen type I-coated 96- or 24-well plates in hepatocyte clonal growth medium at 37 °C and 5 % CO2 as previously described. RealTime-Glo MT Cell Viability Assay (Promega) and XTT assay were performed according to a previously established protocol.

[6] = Liver microsomal stability, rat; format: in vitro ADME; details: rat liver microsomes
Experimental: as §2

[7] = Metabolic analysis in vivo: blood concentration after injection; details: PXB-mice (cDNA-uPA^wild/+/SCID), other: injection, human hepatocyte-chimeric mouse, blood at 5-480 min, n = 1, read-out: t1/2 in blood
[8] = system: HBV genotype C; assay: Anti-HBV activity in HBV-infected PXB cells (HBV DNA by qPCR); format: cell-based
Experimental: as §3, §1
HBV DNA copy numbers were determined using TaqMan Gene Expression Master Mix (Thermo Fisher Scientific) or Probe qPCR Mix (Takara Bio), specific primers, and probes in a qPCR system (Light Cycler 96 System, Roche, Basel, Switzerland or CFX96 Touch Real-Time PCR Detection System, Bio-Rad Laboratories, Hercules, CA, USA). The specific primers and probe used for detection of HBV DNA were as follows: forward primer: 5′-[…]-3′, reverse primer: 5′-[…]-3′, and probe: 5′-[FAM] […][TAM]-3′.

[9] = system: CDK1/2; assay: CDK1/2 mRNA qPCR in HepG2-NTCP-C4 cells; format: cell-based, human; details: 30 μM
Experimental: HepG2-NTCP-C4 cells were plated on a 96-well plate in DMEM/F12 and GlutaMAX Supplement (Thermo Fisher Scientific) containing 10% fetal bovine serum, 10 mM HEPES, 5 μg/ml insulin, […] hydrocortisone, 200 U/ml penicillin, and 200 μg/ml streptomycin. After 1 day, the cells were treated with 30 μM iCDM-17 and iCDM-34 for 3, 8, 24 h. Total RNA was purified form the cells using Agencourt RNA advance (Beckman Courter). cDNA was synthesized using PrimeScript RT master mix (Takara Bio). CDK1, CDK2, β-actin mRNA amount was quantified by qPCR.
mRNA expression levels were measured by qPCR using specific primers or sets of specific primers and probe. RNA was reverse transcribed using PrimeScript RT Master Mix (Takara Bio, Shiga, Japan) to synthesize complementary DNA (cDNA). OAS1,glyceraldehyde 3-phosphate dehydrogenase (GAPDH), β-actin mRNA expression levels were measured using specific primers and TB Green Premix Ex Taq II (Takara Bio). AhR (Hs00169233_m), CDK1 (Hs00938777_m), CDK2 (Hs01548894_m) mRNA expression levels were measured using specific probe and primer sets (Thermo Fisher Scientific, Waltham, MA, USA) and Probe qPCR mix (Takara Bio) in a CFX96 Touch Real-Time PCR Detection System (Bio-Rad Laboratories, Hercules, CA, USA). […] Expression levels were determined using the 2^–ΔΔCt method and were normalized to endogenous β-actin mRNA expression levels.

[10] = Liver microsomal stability, mouse; format: in vitro ADME; details: mouse liver microsomes
Experimental: as §2

[11] = 1 μM substrate, 0.5 mg protein/mL, 30 min
[12] = 1 μM substrate, 0.5 mg protein/mL, 60 min

With O=C(Nc1ccc(Br)cc1)c1ccn(Cn2cc([N+](=O)[O-])cn2)n1 [iCDM-34] as the molecule, how does the “HCV replication (replicon luciferase)” value [1] read?
The value was “suppressed”.

What about the HBeAg in medium [2] of the same molecule?
Its HBeAg in medium is “inhibited”.

What about the HBsAg in medium [2] of the same molecule?
The HBsAg in medium was “inhibited”.

And the “anti-HCV activity (HCV replicon RNA) with AhR siRNA” value ([3]; AhR siRNA)?
Its value is “not present”.

And the “anti-HCV activity (HCV replicon RNA) with control siRNA” value ([3]; control siRNA)?
The value was “significant anti-HCV activity”.

What about the half-life at 1 μM [4] of the same molecule?
Its half-life at 1 μM is 8.43 h.

And the remaining at 0.5 h, 1 μM [4, 11]?
Its remaining at 0.5 h, 1 μM is 96.2 ± 3.2%.

And the remaining at 1 h, 1 μM [4, 12]?
The remaining at 1 h, 1 μM was 94.1 ± 3.3%.

What about the “cytotoxicity (cell viability)” value [5] of the same molecule?
Its value is “no cytotoxicity”.

What about the half-life at 1 μM [6] of the same molecule?
Its half-life at 1 μM is 3.32 h.

What about the remaining at 0.5 h, 1 μM [6, 11] of the same molecule?
The remaining at 0.5 h, 1 μM was 90.2 ± 0.5%.

And the remaining at 1 h, 1 μM [6, 12]?
Its remaining at 1 h, 1 μM is 85.2 ± 0.3%.

What about the half-life [7] of the same molecule?
Its half-life is 0.383 h.

What about the “medium HBV DNA” value ([8]; 30 µM, 7 days) of the same molecule?
Its value is “inhibited”.

And the “effect of combination with ETV on cellular HBV DNA” value ([8]; 3 and 30 µM with 10 nM ETV, 7 days)?
The value was “additive effects”.

What about the “cellular HBV DNA” value ([8]; 3 and 30 µM, 7 days, dose-dependent) of the same molecule?
Its value is “decreased”.

And the IC50 ([8]; Hepatitis B virus, 168 h, HBV genotype C-infected PXB cells, 0.03–100 µM for 7 days, qPCR, read-out: half maximal inhibitory concentration, cellular HBV DNA)?
Its IC50 is 19.7 µM.

What about the “CDK2 mRNA expression levels” value ([9]; after 3 and 8 h) of the same molecule?
Its value is “significantly suppressed”.

And the “CDK1 mRNA levels” value ([9]; after 8 and 24 h)?
Its value is “significant suppression”.

And the half-life at 1 μM [10]?
The half-life at 1 μM was 0.552 h.

And the remaining at 0.5 h, 1 μM [10, 11]?
The remaining at 0.5 h, 1 μM was 41.2 ± 0.4%.

What about the remaining at 1 h, 1 μM [10, 12] of the same molecule?
Its remaining at 1 h, 1 μM is 21 ± 0.8%.

Reference: paper PMC10746708, “A small molecule iCDM-34 identified by in silico screening suppresses HBV DNA through activation of aryl hydrocarbon receptor” (Cell Death Discovery, 2023)
